Assay results reported in article PMC5889090 (Journal of medicinal chemistry, 2017).
Read-outs that look alike come from different tables or passages of the source.

Experiments:
[1] = tested on: zebrafish neuromast hair cells; experiment: Zebrafish neuromast hair cell protection assay; details: for protective activity (in words) / EC50: 200 μM neomycin; for eudismic ratio (ER): HC50 of the less active versus the more active enantiomer
[2] = target: hERG ion channel (Homo sapiens, UniProt Q12809); experiment: cell-based
[3] = tested on: CYP; experiment: CYP stability / inhibition
[4] = In vitro toxicity against HepG2 cell line; details: human
[5] = Early / in vitro ADME profiling
[6] = Air oxidation stability; type: physicochemical; details: oxidation to inactive, highly fluorescent byproduct
[7] = Preliminary i.v. toxicity and plasma half-life in rats; type: in vivo, rat
[8] = tested on: Sprague-Dawley rats; experiment: Rat ABR assay, kanamycin-induced hearing loss; details: kanamycin 500 mg/kg/day s.c. 14 days + compound 25 mg/kg/day i.p.
[9] = tested on: E. coli ATCC25922; experiment: Interference with neomycin MIC/MBC; type: cell-based
[10] = Aqueous solubility; type: physicochemical
[11] = tested on: five strains of P. aeruginosa; experiment: Interference with aminoglycoside MIC; type: cell-based
[12] = tested on: M. tuberculosis; experiment: Interference with amikacin MIC; type: cell-based
[13] = read-out: HC50, Tables 7, 8 and text, 50% hair cell protection

hERG ion channel, sequence (Q12809 whole entry): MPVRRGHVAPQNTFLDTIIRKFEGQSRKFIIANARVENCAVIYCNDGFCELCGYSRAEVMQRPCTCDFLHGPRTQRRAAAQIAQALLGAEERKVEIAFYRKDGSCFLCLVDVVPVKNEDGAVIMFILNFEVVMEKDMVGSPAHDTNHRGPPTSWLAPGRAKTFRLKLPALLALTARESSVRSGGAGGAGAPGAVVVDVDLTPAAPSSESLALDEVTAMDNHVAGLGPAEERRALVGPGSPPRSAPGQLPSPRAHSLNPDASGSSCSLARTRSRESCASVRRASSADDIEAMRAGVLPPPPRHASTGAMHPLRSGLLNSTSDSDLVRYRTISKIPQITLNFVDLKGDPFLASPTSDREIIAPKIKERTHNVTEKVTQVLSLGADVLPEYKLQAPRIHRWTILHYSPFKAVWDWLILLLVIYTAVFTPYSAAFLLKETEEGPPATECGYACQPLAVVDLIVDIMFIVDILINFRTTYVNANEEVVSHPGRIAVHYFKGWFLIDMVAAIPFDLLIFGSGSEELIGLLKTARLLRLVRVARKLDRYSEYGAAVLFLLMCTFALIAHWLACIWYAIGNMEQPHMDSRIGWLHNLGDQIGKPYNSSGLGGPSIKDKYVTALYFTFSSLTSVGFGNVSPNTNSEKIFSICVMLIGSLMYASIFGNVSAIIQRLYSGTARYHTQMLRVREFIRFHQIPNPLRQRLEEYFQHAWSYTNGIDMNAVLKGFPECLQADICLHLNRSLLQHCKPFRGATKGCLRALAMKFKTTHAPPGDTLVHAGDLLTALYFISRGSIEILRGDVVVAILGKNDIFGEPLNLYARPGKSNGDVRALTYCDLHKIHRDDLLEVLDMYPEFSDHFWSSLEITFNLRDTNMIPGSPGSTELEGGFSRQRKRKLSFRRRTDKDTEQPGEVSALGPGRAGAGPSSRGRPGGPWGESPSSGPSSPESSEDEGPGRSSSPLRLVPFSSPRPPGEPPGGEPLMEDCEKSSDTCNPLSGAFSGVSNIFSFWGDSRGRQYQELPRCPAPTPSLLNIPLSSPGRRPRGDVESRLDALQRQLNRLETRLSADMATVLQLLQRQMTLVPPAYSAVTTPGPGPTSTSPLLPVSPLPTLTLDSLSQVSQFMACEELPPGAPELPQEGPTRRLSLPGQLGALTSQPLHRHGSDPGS

## CCN1CCc2c(sc(NC(=O)C3(C(=O)Nc4ccc(Cl)cc4)CC3)c2C(N)=O)C1 [compound 31]
[1]
  protective activity (in words): lack of potency

## CCN1CCc2c(sc(NC(=O)NCc3cccc(Cl)c3)c2C(N)=O)C1.Cl [compound 11]
[1]
  protective activity (in words): inactive

## NC(=O)c1c(NC(=O)Nc2ccc(Cl)cc2)sc2c1CCN(CC1CCC1)C2 [compound 54]
[2]
  IC50: 0.73 µM

## (−)-2-[3-(4-Chlorophenyl)ureido]-9-methyl-5,6,7,8-tetrahydro-4H-5,8-epiminocyclohepta[b]thiophene-3-carboxamide [compound 89]
[1]
  protective activity (in words): significantly reduced activity
[1]; [13]
  EC50: 2.25 µM

## CC(C)(C)OC(=O)CN1CCc2c(sc(NC(=O)Nc3ccc(Cl)cc3)c2C(N)=O)C1 [compound 60]
[1]
  protective activity (in words): completely suppressed

## CCN1CCc2c(sc(NC(=O)Nc3ccc(Cl)cc3)c2C(=O)O)C1.O=C(O)C(F)(F)F [compound 16]
[1]
  protective activity (in words): greatly reduces the activity

## CCN1CCc2c(sc(NC(=O)[C@@H]3CCCN3)c2C(N)=O)C1 [compound 30]
[1]
  protective activity (in words): no protective activity

## CN1[C@@H]2CC[C@H]1c1sc(NC(=O)Nc3ccc(Cl)cc3)c(C(N)=O)c1C2.Cl [compound 92]
[1]
  protective activity (in words): significantly reduced activity
  eudismic ratio (ER): 26.7

## CCN1CCc2c(sc(NC(=O)Nc3cscc3C(=O)OC)c2C(N)=O)C1 [compound 15]
[1]
  protective activity (in words): inactive

## (+/−)-2-[3-(4-Chlorophenyl)ureido]-9-methyl-5,6,7,8-tetrahydro-4H-5,8-epiminocyclohepta[b]thiophene-3-carboxamide [compound 88]
[1]; [13]
  EC50: 0.36 µM

## CC(C)(C)OC(=O)N1CCc2c(sc(NC(=O)Nc3ccc(Cl)cc3)c2C(N)=O)C1 [compound 59]
[1]
  protective activity (in words): completely suppressed

## CCN1CCc2c(sc(NC(=O)Nc3ccc(Cl)cc3)c2C#N)C1.Cl [compound 19]
[1]
  protective activity (in words): greatly reduces the activity

## NC(=O)c1c(NC(=O)Nc2ccc(Cl)cc2)sc2c1[C@@H]1CC[C@H](C2)N1 [compound 99]
[1]; Danio rerio, read-out: HC50, text
  EC50: 0.033 µM

## CCN1CCc2c(sc(NC(=O)Nc3ccccc3)c2C(N)=O)C1.Cl [compound 14]
[1]
  protective activity (in words): inactive

## CCN1CCc2c(sc(NC(=O)Nc3ccc(Cl)cc3)c2C(=O)c2nc(C)no2)C1.Cl [compound 21]
[1]
  protective activity (in words): inactive

## CC1(C)Cc2c(sc(NC(=O)Nc3ccc(Cl)cc3)c2C(N)=O)C(C)(C)N1.Cl [compound 87]
[3]
  CYP stability or inhibition: no issues
[4]
  IC50: > 300 µM
[5]; in vitro ADME profiling
  metabolic stability: excellent
[6]
  air oxidation: resistant to the oxidation pathway

## 2-amino-4,5,6,7-tetrahydrothieno[2,3-c]pyridine-3-carboxamide [compound 28]
[1]
  protective activity (in words): inactive

## Cl.NC(=O)c1c(NC(=O)Nc2ccc(Cl)cc2)sc2c1[C@H]1CC[C@@H](C2)N1 [compound 98]
[1]
  protective activity (in words): significantly reduced activity

## CC(C)(C)OC(=O)CCCN1CCc2c(sc(NC(=O)Nc3ccc(Cl)cc3)c2C(N)=O)C1 [compound 62]
[2]
  IC50: 3.84 µM

## NC(=O)c1c(NC(=O)Nc2ccc(Cl)cc2)sc2c1CCN(CC1CC1)C2 [compound 53]
[2]
  IC50: 2.67 µM

## CCN1CCc2c(sc(NC(=O)Nc3ccc(Cl)cc3)c2C(N)=O)C1.Cl [compound 1, 2-[3-(4-Chlorophenyl)ureido]-6-ethyl-4,5,6,7-tetrahydrothieno[2,3-c]pyridine-3-carboxamide]
[7]; rat, plasma, iv, 25 mg/kg
  half-life: 1.7 h
[7]; rats, i.v., doses up to 25 mg/kg
  toxicity i.v.: non-toxic
[8]; 8 and 16 kHz
  protection from kanamycin-induced hearing loss (ABR): completely prevented
[8]; 32 kHz
  protection from kanamycin-induced hearing loss (ABR): mostly resolved
[9]
  interference with neomycin minimal bactericidal concentration (MBC): no interference
  interference with neomycin minimal inhibitory concentration (MIC): no interference
[3]
  CYP stability or inhibition: no issues
[4]
  IC50: > 300 µM
[5]; early ADME characterization
  clearance profile (in words): acceptable
  membrane permeability (in words): adequate
  plasma protein binding (in words): reasonable
[6]
  air oxidation: gradually undergo partial air oxidation
[10]
  aqueous solubility (in words): adequate

## CCN1CCc2c(sc(NC(=O)NCCN3CCOCC3)c2C(N)=O)C1 [compound 13]
[1]
  protective activity (in words): inactive

## CCN1CCc2c(sc(NC(=O)c3ccccc3)c2C(N)=O)C1.Cl [compound 32]
[1]
  protective activity (in words): no protective activity

## CCN1CCc2c(sc(NC(=O)Nc3ccc(Cl)cc3)c2C(=O)OC)C1.Cl [compound 17]
[1]
  protective activity (in words): greatly reduces the activity

## CCN1CCc2c(sc(NC(=O)NCC3CCCO3)c2C(N)=O)C1 (stereo not drawn) [compound 12]
[1]
  protective activity (in words): inactive

## CC(C)C[N+]1(C)CCc2c(sc(NC(=O)Nc3ccc(Cl)cc3)c2C(N)=O)C1 (stereo not drawn) [compound 71]
[2]
  IC50: 9.75 µM

## CCN1CCc2c(ccc(NC(=O)Nc3ccc(Cl)cc3)c2C(N)=O)C1 [compound 38]
[1]
  protective activity (in words): no potency

## C[N+]1(CC2CCCCC2)CCc2c(sc(NC(=O)Nc3ccc(Cl)cc3)c2C(N)=O)C1 (stereo not drawn) [compound 76]
[2]
  IC50: > 30 µM

## CCN1CCc2c(sc(NC(=O)CN3CCCCC3)c2C(N)=O)C1 [compound 27]
[1]
  protective activity (in words): no protective activity

## Cl.NC(=O)c1c(NC(=O)Nc2ccc(Cl)cc2)sc2c1C[C@H]1CC[C@@H]2N1 [compound 95]
[1]
  protective activity (in words): significantly reduced activity
  eudismic ratio (ER): 14.7

## CCN1CCc2c(sc(NC(=O)Nc3ccc(Cl)cc3)c2C(=O)c2nnco2)C1.Cl [compound 22]
[1]
  protective activity (in words): inactive

## CCN1CCc2c(sc(NC(=O)Nc3ccc(Cl)cc3)c2C(=O)N2CCOCC2)C1.Cl [compound 20]
[1]
  protective activity (in words): greatly reduces the activity

## CCN1CCc2c(sc(NC(=O)Nc3ccc(Cl)cc3)c2C(=O)NC)C1.Cl [compound 18]
[1]
  protective activity (in words): greatly reduces the activity

## CCN1CCc2c(sc(NC=O)c2C(N)=O)C1.Cl [compound 29]
[1]
  protective activity (in words): no protective activity

## CCN1CCc2c(sc(NC(=O)C3(c4ccc(Cl)cc4)CC3)c2C(N)=O)C1.Cl [compound 33]
[1]
  protective activity (in words): no protective activity

## (+)-2-[3-(4-Chlorophenyl)ureido]-9-methyl-5,6,7,8-tetrahydro-4H-5,8-epiminocyclohepta[b]thiophene-3-carboxamide [compound 90]
[11]
  interference in MIC for tobramycin, amikacin, kanamycin and neomycin: no interference
[9]
  interference with neomycin minimal inhibitory concentration (MIC): no interference
[12]
  interference in amikacin MIC: no interference
[1]; [13]
  EC50: 0.12 µM
